Measured values from US10131652B2, “Pyrimidinyloxy benzene derivatives as herbicides” (E. I. DU PONT DE NEMOURS AND COMPANY, priority 2014, dated 2018).

How the values were obtained:
Format in all cases: in vivo
[1] = test system: lambsquarters (Chenopodium album); test: Test D pre-/postemergence plant response; conditions: Postemergence; for Plant response rating (scale 0 to 100), Lambsquarters: 16 g ai/ha; for Plant response rating, Lambsquarters: 125 g ai/ha
How it was run: (§1)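 0 = no effect, 100 = complete control: plants were scored this way by visual comparison with controls 13 to 15 days post-treatment. Application was preemergence to sown loam/sand pots or postemergence to 2–18 cm seedlings in peat-based mix.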

[2] = test system: large (Lg) crabgrass (Digitaria sanguinalis); test: Test D pre-/postemergence plant response; conditions: Postemergence; for Plant response rating (scale 0 to 100), Crabgrass, Large: 16 g ai/ha; for Crabgrass, Large plant response rating: 31 g ai/ha, scale 0 to 100 (0 no effect, 100 complete control); for Plant response rating, Crabgrass, Large: scale 0 to 100, 0 no effect, 100 complete control
How it was run: as §1

[3] = test system: velvetleaf (Abutilon theophrasti); test: Test D pre-/postemergence plant response; conditions: Postemergence; for Plant response rating (scale 0 to 100), Velvetleaf: 16 g ai/ha; for Plant response rating, Velvetleaf: 125 g ai/ha
How it was run: as §1

[4] = test system: blackgrass (Alopecurus myosuroides); test: Test D pre-/postemergence plant response; conditions: Postemergence; for Plant response rating (scale 0 to 100), Blackgrass: 16 g ai/ha; for Blackgrass plant response rating: 31 g ai/ha, scale 0 to 100 (0 no effect, 100 complete control); for Plant response rating, Blackgrass: scale 0 to 100, 0 no effect, 100 complete control
How it was run: as §1

[5] = test system: winter wheat (Triticum aestivum); test: Test D pre-/postemergence plant response; conditions: Postemergence; for Plant response rating (scale 0 to 100), Wheat: 16 g ai/ha; for Plant response rating, Wheat: 125 g ai/ha
How it was run: as §1

[6] = test system: johnsongrass (Sorghum halepense); test: Test D pre-/postemergence plant response; conditions: Postemergence; for Plant response rating (scale 0 to 100), Johnsongrass: 16 g ai/ha; for Johnsongrass plant response rating: 31 g ai/ha, scale 0 to 100 (0 no effect, 100 complete control); for Plant response rating, Johnsongrass: scale 0 to 100, 0 no effect, 100 complete control
How it was run: as §1

[7] = test system: galium (catchweed bedstraw, Galium aparine); test: Test D pre-/postemergence plant response; conditions: Postemergence; for Plant response rating (scale 0 to 100), Galium: 16 g ai/ha; for Galium plant response rating: 31 g ai/ha, scale 0 to 100 (0 no effect, 100 complete control); for Plant response rating, Galium: scale 0 to 100, 0 no effect, 100 complete control
How it was run: as §1

[8] = test system: wheat (Triticum aestivum); test: Test B pre-/postemergence plant response
How it was run: (§2)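 Evaluation is visual, about 10 days after application, rating injury from 0 (none) to 100 (complete control) relative to untreated controls. Application was a preemergence soil spray on seeded pots or a postemergence spray on one- to two-leaf plants.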

[9] = test system: barnyardgrass (Echinochloa crus-galli); test: Test B pre-/postemergence plant response
How it was run: as §2

[10] = test system: giant foxtail (Setaria faberii); test: Test B pre-/postemergence plant response
How it was run: as §2

corn (Zea mays) = test: Test B pre-/postemergence plant response
How it was run: as §2

[11] = test system: pigweed (Amaranthus retroflexus); test: Test B pre-/postemergence plant response
How it was run: as §2

[12] = test system: small-flower umbrella sedge (Cyperus difformis); test: Test C flooded paddy test plant response; conditions: Flood, 250 g ai/ha; scale of 0 to 100 where 0 is no effect and 100 is complete control; 13 to 15 days
How it was run: (§3)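 Plants grown to the 2-leaf stage; pots flooded to 3 cm above soil, test compounds applied directly to paddy water, depth maintained throughout. Greenhouse for 13 to 15 days, then visual rating versus controls on a 0–100 scale (0 no effect, 100 complete control).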

rice (Oryza sativa) = test: Test C flooded paddy test plant response; conditions: Flood, 250 g ai/ha; scale of 0 to 100 where 0 is no effect and 100 is complete control; 13 to 15 days
How it was run: as §3

[13] = test system: barnyardgrass (Echinochloa crus-galli); test: Test C flooded paddy test plant response; conditions: Flood, 250 g ai/ha; scale of 0 to 100 where 0 is no effect and 100 is complete control; 13 to 15 days
How it was run: as §3

[14] = test system: ducksalad (Heteranthera limosa); test: Test C flooded paddy test plant response; conditions: Flood, 250 g ai/ha; scale of 0 to 100 where 0 is no effect and 100 is complete control; 13 to 15 days
How it was run: as §3

[15] = 31 g ai/ha, scale 0 to 100 (0 no effect, 100 complete control)
[16] = 62 g ai/ha, scale 0 to 100, 0 no effect, 100 complete control
[17] = scale 0 to 100, 0 no effect, 100 complete control
[18] = Postemergence, 1000 g ai/ha, 0 to 100 scale (0 no effect, 100 complete control)
[19] = Preemergence, 1000 g ai/ha, 0 to 100 scale (0 no effect, 100 complete control)
[20] = 125 g ai/ha, postemergence, 0 to 100 scale, 0 no effect, 100 complete control
[21] = Postemergence, 31 g ai/ha, 0 to 100 scale (0 no effect, 100 complete control)
[22] = 31 g ai/ha, Preemergence, 0 to 100 scale where 0 is no effect and 100 is complete control
[23] = Preemergence, 125 g ai/ha, 0 to 100 scale (0 no effect, 100 complete control)

## Clc1cnc(Oc2ccccc2-c2cc(Cl)sn2)nc1 [Compound 192]
[1]
  Plant response rating (scale 0 to 100), Lambsquarters: 35
[1]; [15]
  Lambsquarters plant response rating: 50
[1]; [16]
  Lambsquarters plant response rating: 40
[1]; [17]
  Plant response rating, Lambsquarters: 75
[2]
  Plant response rating (scale 0 to 100), Crabgrass, Large: 5
  Crabgrass, Large plant response rating: 5
[2]; 62 g ai/ha
  Plant response rating, Crabgrass, Large: 10
[2]; 125 g ai/ha
  Plant response rating, Crabgrass, Large: 10
[3]
  Plant response rating (scale 0 to 100), Velvetleaf: 20
[3]; [15]
  Velvetleaf plant response rating: 20
[3]; [16]
  Velvetleaf plant response rating: 30
[3]; [17]
  Plant response rating, Velvetleaf: 55
[4]
  Plant response rating (scale 0 to 100), Blackgrass: 0
  Blackgrass plant response rating: 0
[4]; 62 g ai/ha
  Plant response rating, Blackgrass: 0
[4]; 125 g ai/ha
  Plant response rating, Blackgrass: 5
[5]
  Plant response rating (scale 0 to 100), Wheat: 0
[5]; [15]
  Wheat plant response rating: 0
[5]; [16]
  Wheat plant response rating: 5
[5]; [17]
  Plant response rating, Wheat: 5
[6]
  Plant response rating (scale 0 to 100), Johnsongrass: 0
  Johnsongrass plant response rating: 5
[6]; 62 g ai/ha
  Plant response rating, Johnsongrass: 5
[6]; 125 g ai/ha
  Plant response rating, Johnsongrass: 5
[7]
  Plant response rating (scale 0 to 100), Galium: 35
  Galium plant response rating: 50
[7]; 62 g ai/ha
  Plant response rating, Galium: 50
[7]; 125 g ai/ha
  Plant response rating, Galium: 50
[8]; [18]
  Plant response rating, Wheat: 30
[9]; [18]
  Plant response rating, Barnyardgrass: 100
[9]; [19]
  Plant response rating, Barnyardgrass: 100
[10]; [18]
  Plant response rating, Foxtail, Giant: 90
[10]; [19]
  Plant response rating, Foxtail, Giant: 100
Corn (Zea mays); [18]
  Plant response rating, Corn: 30
[11]; [18]
  Plant response rating, Pigweed: 100
[11]; [19]
  Plant response rating, Pigweed: 100
[12]
  Sedge, Umbrella plant response rating: 40
Rice (Oryza sativa)
  Rice plant response rating: 0
[13]
  Barnyardgrass plant response rating: 0
[14]
  Ducksalad plant response rating: 60

## FC(Cl)(Cl)c1cc(-c2ccccc2Oc2ncc(Cl)cn2)no1 [Compound 198]
[1]
  Plant response rating (scale 0 to 100), Lambsquarters: 10
[1]; [15]
  Lambsquarters plant response rating: 55
[1]; [16]
  Lambsquarters plant response rating: 70
[1]; [17]
  Plant response rating, Lambsquarters: 75
[2]
  Plant response rating (scale 0 to 100), Crabgrass, Large: 10
  Crabgrass, Large plant response rating: 15
[2]; 62 g ai/ha
  Plant response rating, Crabgrass, Large: 20
[2]; 125 g ai/ha
  Plant response rating, Crabgrass, Large: 30
[3]
  Plant response rating (scale 0 to 100), Velvetleaf: 50
[3]; [15]
  Velvetleaf plant response rating: 45
[3]; [16]
  Velvetleaf plant response rating: 55
[3]; [17]
  Plant response rating, Velvetleaf: 55
[4]
  Plant response rating (scale 0 to 100), Blackgrass: 5
  Blackgrass plant response rating: 5
[4]; 62 g ai/ha
  Plant response rating, Blackgrass: 10
[4]; 125 g ai/ha
  Plant response rating, Blackgrass: 15
[5]
  Plant response rating (scale 0 to 100), Wheat: 0
[5]; [15]
  Wheat plant response rating: 0
[5]; [16]
  Wheat plant response rating: 5
[5]; [17]
  Plant response rating, Wheat: 5
[6]
  Plant response rating (scale 0 to 100), Johnsongrass: 5
  Johnsongrass plant response rating: 20
[6]; 62 g ai/ha
  Plant response rating, Johnsongrass: 35
[6]; 125 g ai/ha
  Plant response rating, Johnsongrass: 35
[7]
  Plant response rating (scale 0 to 100), Galium: 70
  Galium plant response rating: 75
[7]; 62 g ai/ha
  Plant response rating, Galium: 98
[7]; 125 g ai/ha
  Plant response rating, Galium: 98
[8]; [20]
  Plant response rating, Wheat: 10
[8]; [21]
  Plant response rating, Wheat: 0
[9]; [22]
  Plant response rating, Barnyardgrass: 10
[9]; [20]
  Plant response rating, Barnyardgrass: 50
[9]; [21]
  Plant response rating, Barnyardgrass: 10
[9]; [23]
  Barnyardgrass plant response rating: 40
[10]; [22]
  Plant response rating, Foxtail, Giant: 70
[10]; [20]
  Plant response rating, Foxtail, Giant: 90
[10]; [21]
  Plant response rating, Foxtail, Giant: 30
[10]; [23]
  Foxtail, Giant plant response rating: 90
Corn (Zea mays); [20]
  Plant response rating, Corn: 20
Corn (Zea mays); [21]
  Plant response rating, Corn: 10
[11]; [22]
  Plant response rating, Pigweed: 30
[11]; [20]
  Plant response rating, Pigweed: 100
[11]; [21]
  Plant response rating, Pigweed: 100
[11]; [23]
  Pigweed plant response rating: 100
[12]
  Sedge, Umbrella plant response rating: 100
Rice (Oryza sativa)
  Rice plant response rating: 25
[13]
  Barnyardgrass plant response rating: 40
[14]
  Ducksalad plant response rating: 85
